Ends that are not written are not given here.
Experiments:
Assay type in all cases: cell-based, human
[1] = system: CD8+ T cells from HIV+ subjects; assay: Intracellular cytotoxin staining (ICS: perforin, GrzA, GrzB, CD107a), CD8+ T cells from HIV+ subjects; parameters: key to CD8^+ T-cell cytotoxins (8C): positive (+); negative (−) response; inhibitory (↓); not done (n); conditions: for CD8^+ T-cell cytotoxins (8C): HIV^+ subjects compared to HIV^− control group
Procedure: (§1) Briefly, 1×10^6PBMCs (freshly isolated) are stimulated with 20 μg of peptides for 6 hours in a total volume of 200 μL in a 96-well plate in presence of Golgi transport inhibitor (37° C., 5% CO2). The cells are processed as previously described (Horton et al. (2007)). Cells were stained with the LIVE/DEAD® fixable yellow dye (Invitrogen, Eugene, Oreg.). The monoclonal antibodies fluorochome-conjugated to human cytokines used are: APC-H7 to CD3 (clone SK7); BD Horizon V450 to CD4 (clone RPA-T4); Qdot to CD8 (clone 3B5); PE-cy7 to IFN-γ (clone 4S.B3); APC to IL-2 (clone MQ1-17H12) PerCP to perforin (clone B-D48); Alexa F1.700 to granzyme-B (clone GB11) and PE to granzyme-A (clone CB9). The flow cytometry data is collected using BD LSRII and analyzed with the FACS DIVA software.
(§2) The ICS analysis (Horton et al. (2007)) involved stimulating 0.5-1.0×10^6 freshly isolated PBMC for 6 h with the same peptide stimulant and culture conditions as the proliferation analysis in the presence of 1 μg/mL of Golgi transport inhibitor and monensin followed by labeling with LIVE/DEAD fixable yellow dye and then treatment with anti-CD16/CD32 antibody and T-cell phenotypic antibodies. The cells were subsequently fixed and permeabilized with Cytofix/Cytoperm solution (BD Biosciences) before reaction with anti-cytotoxin antibodies. The antibodies consisted of anti-CD3 APC-H7, anti-CD4 BD Horizon V450, and anti-CD8 FITC followed by anti-GrzB Alexa 700 and anti-GrzA PE (all from BD Biosciences), and anti-perforin PerCP (Abcam, Boston, Mass.).
(§3) In both analyses, 1.0-2.0×10^4 cells were fixed in phosphate-buffered saline (PBS) containing 2% paraformaldehyde and analyzed on BD LSRII using […] Software (BD Biosciences), with a positive threshold of 3% CFSE^low for CFSE-proliferation and 1% T cells expressing cytotoxin for ICS. The final value for each subject was derived after subtraction of the subject's medium control and the average value of peptide-stimulated cells from uninfected control subjects.
(§4) Flow cytometry (FACS) for measuring CFSE-proliferation and intracellular cytokine staining (ICS). Carboxyfluorescein diacetate succinimide ester (CFSE)-proliferation analysis was performed according to the manufacturer's protocol (Invitrogen) and processed as previously described (Lichterfeld et al. 2004) using the following modification: 2.5-5.0×10^5 CFSE-labeled PBMC stimulated for 4-5 days (37° C., 5% CO2) with 15-30 μg of peptides in culture media (AIM V medium, 25 μg/mL gentamycin, and 10% heat-inactivated fetal bovine serum). The ICS analysis was performed as previously described (Horton et al. 2007; Pattacini et al. 2012).
(§5) The antibodies used for the proliferation analysis consisted of anti-CD4 allophycocyanin (APC) anti-CD3 APC-H7, and anti-CD8 Pacific Blue, and those for ICS were anti-CD3 APC-H7, anti-CD4 BD Horizon V450, anti-CD8 FITC, anti-granzyme B (GrzB) Alexa 700, anti-granzyme A (GrzA) PE (BD Biosciences, Cat #555349, 560176, 558207, 560345, 555366, 560213, 558904), and anti-perforin PerCP (Abcam, Cat #ab86319). Both analyses were performed with BD LSRII and […]™ Software (BD Biosciences), using a positive threshold of >1% CFSE^low for CFSE-proliferation except for ICS studies with threshold of >0.1% T cells expressing cytotoxin. The final value for each subject was derived after subtracting the result of each HIV^+ subject with the media control followed by subtraction with the average response of the media-control subtracted HIV^− subjects.

[2] = system: CD4+ T cells from HIV+ subjects; assay: Intracellular cytotoxin staining (ICS), CD4+ T cells from HIV+ subjects; parameters: key to CD4^+ T-cell cytotoxins (4C): positive (+); negative (−) response; inhibitory (↓); not done (n); conditions: HIV^+ subjects compared to HIV^− control group
Procedure: as §1, §2, §3, §4, §5

[3] = system: CD3+CD8+ T cells from HIV+ subjects; assay: CFSE-proliferation, CD3+CD8+ T cells from HIV+ subjects; conditions: positive responses over total tested; F3 responders (H3 responders for H3-3)
Procedure: 2×10^5-5×10^5 CFSE labeled PBMCs were incubated with 15-20 μg of peptides in 600 μL of RPMI media with 10% FBS for 5 days at 37° C. (5% CO2). After harvesting, they were labeled with allophycocyanin (APC), APC-H7, and Pacific Blue labeled monoclonal antibodies (MAb) to human CD3, CD4, and CD8, respectively and analyzed for T-cell proliferation by flow cytometry using BD LSRII (BD Biosciences). The proliferating CD4^+ or CD8^+ T cell populations were defined from the CD3^+ cell population as either CD3^+CD8^+ or CD3^+CD4^+T cells (mutually exclusive) with low CFSE (CFSE^low) staining.
Flow cytometry (FACS) for carboxyfluoresein diacetate succinimide ester (CFSE)-proliferation and intracellular cytotoxin staining (ICS). The CFSE-proliferation analysis was performed on PBMC according to the manufacturer's protocol (Invitrogen, Carlsbad, Calif.) and processed as previously described (Lichterfeld et al. (2004)). Modifications consisted of using 2.0-5.0×10^5 CFSE-labeled cells stimulated for 5 days (37° C., 5% CO^2) with 30 μg/well of total peptides in a pool (15 μg/well for individual peptide, Table 10) or 5 μg/mL PHA in AIM V medium containing 25 μg/mL of gentamycin and 10% heat-inactivated human serum. Subsequently these cells were harvested and labeled with the LIVE/DEAD fixable yellow dye (Invitrogen) and then treated 5 min with anti-CD16/CD32 antibody (Biolegend, San Diego, Calif.) for blocking non-specific binding before phenotype-specific antibodies. The following antibodies were used for the CFSE-proliferation analysis: anti-CD4 APC, anti-CD3 APC-H7, and anti-CD8 Pacific Blue (BD Biosciences, San Jose, Calif.).
as §3, §4, §5

[4] = system: PBMC from HIV+ subjects; assay: IFNγ ELISpot, PBMC from HIV+ subjects; conditions: positive responses over total tested; F3 responders (H3 responders for H3-3)
Procedure: 1.0×10^5-2.0×10^5 PBMCs were stimulated with peptides (15 μg peptide/well) in ELISpot plates for 18 hours in AIMS V medium (at 10% normal human serum). The spots were counted with an ELISpot reader and adjusted to spot forming units (SFU) per 10^6 cells.
Positive reactivity was defined at ≥70 SFU/10^6 cells after subtracting the background derived from non-specific peptide control or media control, and the average of 3 HIV-1 negative controls (<30 SFU/10^6 cells).
ELISpot assays. Enzyme-linked immunosorbent spot assays (ELISpot) for IFNγ (R&D Systems, Minneapolis, Minn.) were performed with AIM V medium containing 5% heat-inactivated (56° C., 30 min) human serum as previously described (Abbott et al. (2012)). The PBMC from HIV+ subjects were stimulated with either peptide pool (4-5 consecutive peptides per pool at 5 μg per peptide) or individual peptide (15 μg/well). The peptides were 11-16 aa in length with 8-10 aa overlap. The results were analyzed with an ELISpot reader (MVS Pacific LLC, Minneapolis, Minn.) and adjusted to spot forming units (SFU) per 10^6 cells, after subtraction of the average medium control for each subject. The PBMC from HIV+ subjects were stimulated with T-cell mitogen, phytohemaglutinin A (PHA, 5 μg/mL), as positive control. At a positive threshold of 70 SFU, HIV− subjects had no substantial IFNγ responses (>50 SFU) to HIV and FIV peptide pools.
ELISpot assays. Human enzyme-linked immunosorbent spot assays (ELISpot) (R&D Systems, Cat #XEL285) which measure IFNγ production were performed (Abbott et al. 2011). The positive threshold for human IFNγ responses was >50 spot forming units (SFU)/10^6 cells. The final value for each subject was derived after subtracting the result of each HIV^+ subject with the media control followed by subtraction with the average response of the HIV^− subjects which was rarely more than 10 SFU.

[5] = system: CD4+ or CD8+ T cells from HIV+ subjects; assay: Intracellular cytotoxin staining (ICS), CD4+ or CD8+ T cells from HIV+ responders; conditions: responders to Fp9 or Fp14 peptide pools
Procedure: Briefly, 1×10^6PBMCs (freshly isolated) are stimulated with 20 μg of peptides for 6 hours in a total volume of 200 μL in a 96-well plate in presence of Golgi transport inhibitor (37° C., 5% CO2). […] Cells were stained with the LIVE/DEAD® fixable yellow dye (Invitrogen, Eugene, Oreg.). […] The flow cytometry data is collected using BD LSRII and analyzed with the FACS DIVA software.
The cells were subsequently fixed and permeabilized with Cytofix/Cytoperm solution (BD Biosciences) before reaction with anti-cytotoxin antibodies. The antibodies consisted of anti-CD3 APC-H7, anti-CD4 BD Horizon V450, and anti-CD8 FITC followed by anti-GrzB Alexa 700 and anti-GrzA PE (all from BD Biosciences), and anti-perforin PerCP (Abcam, Boston, Mass.).
as §3
Flow cytometry (FACS) for measuring CFSE-proliferation and intracellular cytokine staining (ICS).
Both analyses were performed with BD LSRII and […]™ Software (BD Biosciences), using a positive threshold of >1% CFSE^low for CFSE-proliferation except for ICS studies with threshold of >0.1% T cells expressing cytotoxin.

Substance | CD8^+ T-cell cytotoxins (8C) [1] | CD4^+ T-cell cytotoxins (4C) [2] | CD8^+ T Proliferation (positive/total) [3] | IFNγ (positive/total) [4] | also measured
AEVKLYLKQSLSIA [Fp14-3] | + | + |  |  | cytotoxin expression / CTL-associated activity in CD8+ T cells (in words) [1]: highest frequency and levels; HIV+ subjects whose CD8+ T cells responded with one or more cytotoxins ([1]; five HIV+ subjects, individual 13-15mer peptides): five
ASQEVKNWMTETLLV [Hp15-2] | + | + |  |  | 
CAEV & MVV (KKKSGKWRMLIDFRE) |  |  | 0/5 | 1/9 | 
DQEQNTAEVKLYLK [Fp14-1] | + | + |  |  | Cytotoxins [5]: High Cytototoxins (The cytotoxin result is considered high when four or five subjects express one or more cytotoxins in the CD8^+ T cells)
EQNTAEVKLYLKQSL [Fp14-2] | + | + |  |  | 
FIV 3-3 (KR9) (KWRMLIDFR) |  |  | 0/6 | 1/9 | 
FIV 3-3 (WV9) (WRMLIDFRV) |  |  | 1/6 | 8/11 | 
FIV F3-3 (KKKSGKWRMLIDFRV) |  |  | 6/9 | 13/13 | 
FIV F3-3 (KV15) (KKKSGKWRMLIDFRV) |  |  | 6/9 | 13/13 | 
